According to ChEMBL document CHEMBL1201862, “PubChem BioAssay data set” (2004):
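In this assay, cells in 96-well plates receive the compound at five concentrations for 48 hours. Endpoints are linearly interpolated between the surrounding concentrations. Here, GI50 denotes the concentration required for 50% inhibition of growth.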 Calls of active or inactive are those of the source. Cut-off read from the data, not from the text of the source: active = GI50 up to about 1.1 µM and inactive = higher.

Legend:
Assay in all cases: DTP human tumour cell line panel, 48 h
HOP-92 = tested on: HOP-92
UO-31 = tested on: UO-31
SK-MEL-2 = tested on: SK-MEL-2
SN12C = tested on: SN12C
M14 = tested on: M14
RXF 393 = tested on: RXF 393
KM-20L2 = tested on: KM-20L2
LOX IMVI = tested on: LOX IMVI
RPMI-8226 = tested on: RPMI-8226
HCT-15 = tested on: HCT-15
SR = tested on: SR
HL-60 = tested on: HL-60
ACHN = tested on: ACHN
Malme-3M = tested on: Malme-3M
IGROV-1 = tested on: IGROV-1
DLD-1 = tested on: DLD-1
LXFL 529 = tested on: LXFL 529
SF-268 = tested on: SF-268
A549 = tested on: A549
NCI-H226 = tested on: NCI-H226
SF-295 = tested on: SF-295
MOLT-4 = tested on: MOLT-4
K562 = tested on: K562
SK-OV-3 = tested on: SK-OV-3
SF-539 = tested on: SF-539
SNB-19 = tested on: SNB-19
SK-MEL-28 = tested on: SK-MEL-28
U-251 = tested on: U-251
COLO 205 = tested on: COLO 205
CCRF-CEM = tested on: CCRF-CEM
786-0 = tested on: 786-0
NCI-H23 = tested on: NCI-H23
HOP-62 = tested on: HOP-62
NCI-H460 = tested on: NCI-H460
DMS-114 = tested on: DMS-114
HT-29 = tested on: HT-29
A498 = tested on: A498
SK-MEL-5 = tested on: SK-MEL-5
SNB-78 = tested on: SNB-78
HCT-116 = tested on: HCT-116
UACC-257 = tested on: UACC-257
OVCAR-5 = tested on: OVCAR-5
HCC 2998 = tested on: HCC 2998
EKVX = tested on: EKVX
OVCAR-4 = tested on: OVCAR-4
DMS-273 = tested on: DMS-273
OVCAR-8 = tested on: OVCAR-8
SNB-75 = tested on: SNB-75
UACC-62 = tested on: UACC-62
OVCAR-3 = tested on: OVCAR-3
HOP-18 = tested on: HOP-18
SW-620 = tested on: SW-620
NCI-H522 = tested on: NCI-H522
CAKI-1 = tested on: CAKI-1
KM12 = tested on: KM12
TK-10 = tested on: TK-10
M19-MEL = tested on: M19-MEL
XF498 = tested on: XF498

CCC(C)CCOC(=O)c1ccc(/N=C\c2ccc(/C=N/c3ccc(C(=O)OCCC(C)CC)cc3)cc2)cc1 (stereo unspecified)
GI50 (HOP-92): > 100 µM (inactive) | GI50 (UO-31): 41.1 µM (inactive) | GI50 (SK-MEL-2): > 100 µM (inactive) | GI50 (SN12C): > 100 µM (inactive) | GI50 (M14): > 100 µM (inactive) | GI50 (RXF 393): > 100 µM (inactive) | GI50 (KM-20L2): > 100 µM (inactive) | GI50 (LOX IMVI): > 100 µM (inactive) | GI50 (RPMI-8226): > 100 µM (inactive) | GI50 (HCT-15): > 100 µM | GI50 (SR): > 100 µM (inactive) | GI50 (HL-60): > 100 µM (inactive) | GI50 (ACHN): > 100 µM (inactive) | GI50 (Malme-3M): > 100 µM (inactive) | GI50 (IGROV-1): > 100 µM (inactive) | GI50 (DLD-1): > 100 µM (inactive) | GI50 (LXFL 529): > 100 µM (inactive) | GI50 (SF-268): > 100 µM (inactive) | GI50 (A549): > 100 µM (inactive) | GI50 (NCI-H226): > 100 µM (inactive) | GI50 (SF-295): > 100 µM (inactive) | GI50 (MOLT-4): > 100 µM (inactive) | GI50 (K562): > 100 µM (inactive) | GI50 (SK-OV-3): > 100 µM (inactive) | GI50 (SF-539): > 100 µM (inactive) | GI50 (SNB-19): > 100 µM (inactive) | GI50 (SK-MEL-28): > 100 µM (inactive) | GI50 (U-251): > 100 µM (inactive) | GI50 (COLO 205): > 100 µM (inactive) | GI50 (CCRF-CEM): > 100 µM (inactive) | GI50 (786-0): > 100 µM (inactive) | GI50 (NCI-H23): > 100 µM (inactive) | GI50 (HOP-62): > 100 µM (inactive) | GI50 (NCI-H460): > 100 µM (inactive) | GI50 (DMS-114): > 100 µM (inactive) | GI50 (HT-29): > 100 µM (inactive) | GI50 (A498): > 100 µM (inactive) | GI50 (SK-MEL-5): > 100 µM (inactive) | GI50 (SNB-78): > 100 µM (inactive) | GI50 (HCT-116): > 100 µM (inactive) | GI50 (UACC-257): > 100 µM (inactive) | GI50 (OVCAR-5): > 100 µM (inactive) | GI50 (HCC 2998): > 100 µM (inactive) | GI50 (EKVX): 62.2 µM (inactive) | GI50 (OVCAR-4): > 100 µM (inactive) | GI50 (DMS-273): > 100 µM (inactive) | GI50 (OVCAR-8): > 100 µM (inactive) | GI50 (SNB-75): > 100 µM (inactive) | GI50 (UACC-62): > 100 µM (inactive) | GI50 (OVCAR-3): > 100 µM (inactive) | GI50 (HOP-18): > 100 µM (inactive) | GI50 (SW-620): > 100 µM (inactive) | GI50 (NCI-H522): > 100 µM (inactive) | GI50 (CAKI-1): > 100 µM (inactive)

O=C(CNc1nncs1)NO
GI50 (HOP-92): 38.2 µM (inactive) | GI50 (UO-31): > 100 µM (inactive) | GI50 (SK-MEL-2): > 100 µM (inactive) | GI50 (SN12C): > 100 µM (inactive) | GI50 (M14): > 100 µM (inactive) | GI50 (RXF 393): > 100 µM (inactive) | GI50 (KM-20L2): > 100 µM (inactive) | GI50 (RPMI-8226): > 100 µM (inactive) | GI50 (HCT-15): > 100 µM | GI50 (HL-60): > 100 µM (inactive) | GI50 (ACHN): > 100 µM (inactive) | GI50 (Malme-3M): > 100 µM (inactive) | GI50 (IGROV-1): > 100 µM (inactive) | GI50 (DLD-1): > 100 µM (inactive) | GI50 (LXFL 529): > 100 µM (inactive) | GI50 (SF-268): > 100 µM (inactive) | GI50 (A549): > 100 µM (inactive) | GI50 (SF-295): > 100 µM (inactive) | GI50 (MOLT-4): > 100 µM (inactive) | GI50 (K562): > 100 µM (inactive) | GI50 (SK-OV-3): > 100 µM (inactive) | GI50 (SF-539): > 100 µM (inactive) | GI50 (SNB-19): > 100 µM (inactive) | GI50 (KM12): > 100 µM (inactive) | GI50 (SK-MEL-28): > 100 µM (inactive) | GI50 (U-251): > 100 µM (inactive) | GI50 (TK-10): > 100 µM (inactive) | GI50 (COLO 205): > 100 µM (inactive) | GI50 (CCRF-CEM): > 10 µM (inactive) | GI50 (786-0): > 100 µM (inactive) | GI50 (NCI-H23): > 100 µM (inactive) | GI50 (HOP-62): > 100 µM (inactive) | GI50 (NCI-H460): > 100 µM (inactive) | GI50 (DMS-114): 54.3 µM (inactive) | GI50 (M19-MEL): > 100 µM (inactive) | GI50 (HT-29): 84.3 µM (inactive) | GI50 (A498): > 100 µM (inactive) | GI50 (SNB-78): > 100 µM (inactive) | GI50 (HCT-116): > 100 µM (inactive) | GI50 (UACC-257): > 100 µM (inactive) | GI50 (OVCAR-5): > 100 µM (inactive) | GI50 (HCC 2998): > 100 µM (inactive) | GI50 (EKVX): > 100 µM (inactive) | GI50 (OVCAR-4): > 100 µM (inactive) | GI50 (DMS-273): > 100 µM (inactive) | GI50 (OVCAR-8): > 100 µM (inactive) | GI50 (SNB-75): > 100 µM (inactive) | GI50 (UACC-62): > 100 µM (inactive) | GI50 (OVCAR-3): > 100 µM (inactive) | GI50 (HOP-18): > 100 µM (inactive) | GI50 (SW-620): > 100 µM (inactive) | GI50 (NCI-H522): > 100 µM (inactive)

CC(C(=O)c1ccccc1)C1(O)C(=O)Nc2ccc(Cl)cc21 (stereo unspecified)
GI50 (HOP-92): > 100 µM (inactive) | GI50 (UO-31): 0.469 µM (active) | GI50 (SK-MEL-2): > 100 µM (inactive) | GI50 (SN12C): > 100 µM (inactive) | GI50 (M14): > 100 µM (inactive) | GI50 (RXF 393): > 100 µM (inactive) | GI50 (KM-20L2): > 100 µM (inactive) | GI50 (LOX IMVI): 50.6 µM (inactive) | GI50 (RPMI-8226): 48 µM (inactive) | GI50 (HCT-15): 81.8 µM | GI50 (ACHN): > 100 µM (inactive) | GI50 (Malme-3M): > 100 µM (inactive) | GI50 (IGROV-1): > 100 µM (inactive) | GI50 (DLD-1): > 100 µM (inactive) | GI50 (LXFL 529): 72.3 µM (inactive) | GI50 (SF-268): > 100 µM (inactive) | GI50 (A549): > 100 µM (inactive) | GI50 (NCI-H226): > 100 µM (inactive) | GI50 (SF-295): > 100 µM (inactive) | GI50 (SK-OV-3): > 100 µM (inactive) | GI50 (SF-539): > 100 µM (inactive) | GI50 (SNB-19): > 100 µM (inactive) | GI50 (KM12): > 100 µM (inactive) | GI50 (SK-MEL-28): > 100 µM (inactive) | GI50 (U-251): 53.8 µM (inactive) | GI50 (TK-10): > 100 µM (inactive) | GI50 (COLO 205): > 100 µM (inactive) | GI50 (786-0): 40.3 µM (inactive) | GI50 (NCI-H23): > 100 µM (inactive) | GI50 (HOP-62): > 100 µM (inactive) | GI50 (NCI-H460): > 100 µM (inactive) | GI50 (DMS-114): 56.8 µM (inactive) | GI50 (M19-MEL): 16.7 µM (inactive) | GI50 (HT-29): 75.7 µM (inactive) | GI50 (A498): > 100 µM (inactive) | GI50 (SNB-78): > 100 µM (inactive) | GI50 (HCT-116): > 100 µM (inactive) | GI50 (UACC-257): 31.6 µM (inactive) | GI50 (OVCAR-5): > 100 µM (inactive) | GI50 (HCC 2998): > 100 µM (inactive) | GI50 (EKVX): > 100 µM (inactive) | GI50 (OVCAR-4): 19.2 µM (inactive) | GI50 (OVCAR-8): > 100 µM (inactive) | GI50 (SNB-75): > 100 µM (inactive) | GI50 (UACC-62): 42.2 µM (inactive) | GI50 (OVCAR-3): 37.4 µM (inactive) | GI50 (HOP-18): 12.8 µM (inactive) | GI50 (XF498): > 100 µM (inactive) | GI50 (SW-620): 49.1 µM (inactive) | GI50 (CAKI-1): > 100 µM (inactive)
